Measured values taken from the NIST ThermoML archive (doi:10.1016/j.fluid.2015.11.009).
± gives the expanded uncertainty stated by the source.

Legend:
[1] = 298.15 K; 101.33 kPa; Liquid; Pycnometric method
[2] = refractive index (Na D-line) (dimensionless); conditions: 298.15 K; 101.33 kPa; Liquid; Standard Abbe refractometry

SMILES	mass density [1] [kg/m3]	refractive index [2]
COCOCOC [2,4,6-trioxaheptane]	957.8 ± 0.3	1.3789 ± 0.0004
CCCCO [butan-1-ol]	805.2 ± 0.3	1.3967 ± 0.0004
O [water]		1.3325 ± 0.0004
